The values below come from the supplement of paper PMC3974653.

For this assay, the system named is MTT (mouse pheochromocytoma). The assay is described as follows: IC50 of cell viability (ATP content). The note with it: (24 or 48 h). The procedure, abridged: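 CellTiter-Glo ATP luminescence, read after 15 minutes, was used to assess MTT mouse pheochromocytoma cells treated for 24 or 48 hrs with library compounds (final 0.5 nM to 46 µM, 8 concentrations). The cells had been plated at 5 µl of 200,000 cells/ml per well in white 1536-well plates in DMEM with 5% FBS and 1% horse serum and cultured overnight at 37°C, 5% CO2. Normalisation set positive-control wells to 100% and DMSO wells to 0%. The IC50 was then determined by four-parameter logistic fitting.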

Molecules are shown by their SMILES. Where a name gives a salt, the structure may show the parent alone.

Turning to `CCC(=O)[C@@]1(C)[C@H](C)C[C@@H]2[C@@H]3CC\C4=C\C(=O)\C=C/[C@@]4(C)[C@H]3[C@H](O)C[C@@]12C` [Rimexolone], the “IC50 of cell viability” value is > 46 µM. For `CC(CC(=O)O)(CC(=O)O)C(=O)O.CCN(CC)CCOCCOC(=O)C(CC)(CC)c1ccccc1` [OXELADIN TANNATE] the value was > 46 µM; for `CC(=O)Oc1cccc(C(=O)O)c1OC(C)=O` [DIPYROCETYL], > 46 µM; for `C[C@]12C=CC(=O)C=C1[C@@H](F)C[C@@H]1[C@@H]2[C@@H](O)C[C@@]2(C)[C@H]1CC[C@]2(O)C(=O)CO` [Fluprednisolone], > 46 µM.

`CCCCNc1ccc(C(=O)OCCN(C)C)cc1`: the “IC50 of cell viability” value was > 46 µM. For the molecule `O=[P@@]1(NCCCl)OCCCN1CCCl` [Ifosfamide], the “IC50 of cell viability” value is > 46 µM. For `Nc1nc(NC2CC2)c2ncn([C@H]3C=C[C@@H](CO)C3)c2n1` [ABACAVIR SULFATE] the value was > 46 µM.

`O=C1c2ccccc2-c2n[nH]c3cccc1c23`: the “IC50 of cell viability” value is > 46 µM.

For the molecule `COc1ccccc1O` [2-Methoxyphenol], the “IC50 of cell viability” value is > 46 µM. `CC(=O)OCC(=O)C1(O)CCC2C3CCC/4=C/C(=O)CCC4(C)C3C(O)CC12C` (configuration not stated) [Hydrocortisone acetate]: the “IC50 of cell viability” value is > 46 µM. With `C[N+](C)(C)CC[N+]1(C)Cc2c(Cl)c(Cl)c(Cl)c(Cl)c2C1` [CHLORISONDAMINE], the “IC50 of cell viability” value was > 46 µM. In the case of `COc1ccc(-c2ccc3cc(C(=O)O)ccc3c2)cc1C12CC3CC(CC(C3)C1)C2` [Adapalene], the “IC50 of cell viability” value is > 46 µM.

`O=C1CN2Cc3c(ccc(Cl)c3Cl)NC2=N1` [Anagrelide hydrochloride]: the “IC50 of cell viability” value is > 46 µM. Regarding `COc1cc2c(cc1OC)C1CC(=O)C(CC(C)C)CN1CC2` (configuration not stated) [Tetrabenazine], the “IC50 of cell viability” value is > 46 µM. For `CCCC(=O)Nc1ncnc2c1ncn2C1OC2COP(=O)(O)OC2C1OC(=O)CCC` (configuration not stated) [BUCLADESINE] the value was > 46 µM; for `[Na+].[Na+].CO[C@@]1(NC(=O)[C@H](C([O-])=O)C2=CC=C(O)C=C2)[C@@H]3OC\C(=C(/N3C1=O)C([O-])=O)CSC4=NN=N[N]4C` [Moxalactam disodium salt], > 46 µM. Consider `CN1CC(=O)N2C(Cc3c([nH]c4ccccc34)[C@H]2c2ccc3c(c2)OCO3)C1=O` (some centres not stated) [TADALAFIL], for which the “IC50 of cell viability” value is > 46 µM. For `COC1=C(OC)C(=O)C(C/C=C(\C)CC/C=C(\C)CC/C=C(\C)CC/C=C(\C)CC/C=C(\C)CC/C=C(\C)CC/C=C(\C)CC/C=C(\C)CC/C=C(\C)CCC=C(C)C)=C(C)C1=O` [Ubidecarenone] the value was > 46 µM; for `COc1ccc(C(=O)c2ccccc2O)c(O)c1` [Dioxybenzone], > 46 µM; for `NCc1cccnc1` [Picolamina], > 46 µM.

With `O=C(COCCOCCOCC(=O)Nc1c(I)cc(I)c(C(=O)O)c1I)Nc1c(I)cc(I)c(C(=O)O)c1I` [Biliscopin], the “IC50 of cell viability” value is > 46 µM. As for `C\C1=C(\OC2=C(C=CC=C2C(=O)OCCN3CCCCC3)C1=O)C4=CC=CC=C4` [Flavoxate hydrochloride], the “IC50 of cell viability” value was > 46 µM.

Turning to `c1ccc2c(CCC3CC[NH2+]CC3)c[nH]c2c1` [Indalpine], the “IC50 of cell viability” value is > 46 µM.

Turning to `Cc1cc(C(=O)NNCc2ccccc2)no1` [Isocarboxazid], the “IC50 of cell viability” value is > 46 µM. Regarding `CCN1CCN(c2cc(-c3ccc(F)cc3)c3c(n2)CCCCCC3)CC1` [BLONANSERIN], the “IC50 of cell viability” value was > 46 µM. Turning to `OCC1OC([S][Au])[C@H](O)C(O)C1O` (some centres not stated) [AUROTHIOGLUCOSE], the “IC50 of cell viability” value was > 46 µM. Regarding `C[C@@](Cc1ccc(O)c(O)c1)(NN)C(=O)O` [CARBIDOPA], the “IC50 of cell viability” value was > 46 µM. As for `C[C@@H]1CCC[C@H](C)N1` [(cis-) Nanophine], the “IC50 of cell viability” value is > 46 µM. For the molecule `Cc1ccc(O)cc1` [p-Cresol], the “IC50 of cell viability” value was > 46 µM. As for `Cc1ccc(O)c2ncccc12` [Tiliquinol], the “IC50 of cell viability” value was > 46 µM. With `FC(F)OC(F)(F)C(F)Cl` (configuration not stated) [ENFLURANE], the “IC50 of cell viability” value is > 46 µM.

With `CCOC(=O)O[C@@H](C)OC(=O)[C@@H]1[N@]2[C@@H](SC1(C)C)[C@H](NC(=O)[C@@H](N)C3=CC=CC=C3)C2=O` [Bacampicillin hydrochloride], the “IC50 of cell viability” value was > 46 µM.

For the molecule `CCCN[C@@H](C)C(=O)Nc1c(C)csc1C(=O)OC` [Articaine hydrochloride], the “IC50 of cell viability” value was > 46 µM. On to `COc1cc([C@H]2Oc3cc([C@H]4Oc5cc(O)cc(O)c5C(=O)[C@@H]4O)ccc3O[C@@H]2CO)ccc1O` [Silibinin], for which the “IC50 of cell viability” value was > 46 µM. Consider `C/C=C/C=N/NC(=O)c1ccncc1` [Crotoniazida], for which the “IC50 of cell viability” value is > 46 µM.

Take `C[C@H](O)C(=O)Nc1c(I)c(C(=O)NC(CO)CO)c(I)c(C(=O)NC(CO)CO)c1I` [Iopamidol]: the “IC50 of cell viability” value is > 46 µM. With `O=C(/C=C/c1ccccc1)NCCO` [Idrocilamida], the “IC50 of cell viability” value is > 46 µM. Turning to `[Cl][Pt][Cl]` [cis-Diamineplatinum(II) dichloride], the “IC50 of cell viability” value was > 46 µM.

On to `CCc1cc2c(s1)-n1c(C)nnc1CN=C2c1ccccc1Cl` [ETIZOLAM], for which the “IC50 of cell viability” value was > 46 µM. Regarding `Cc1c(C(N)=O)cc([N+](=O)[O-])cc1[N+](=O)[O-]` [DINITOLMIDE], the “IC50 of cell viability” value was > 46 µM.

Take `CCC(CC)(CC(=O)Nc1cccc(/C=C/c2nc(C3CCC3)cs2)c1)C(=O)O` [CINALUKASTUM]: the “IC50 of cell viability” value was > 46 µM. For `OC1C(O)C(O)C(O)C(O)C1O` (configuration not stated) [INOSITOL], the “IC50 of cell viability” value was > 46 µM. For `CC(=O)NC(CCC(N)=O)C(=O)O` [Na-Acetyl-L-glutamine] the value was > 46 µM. As for `CCc1nnc(N[S+](=O)([O-])c2ccc(N)cc2)s1` [Sulfaethidole], the “IC50 of cell viability” value is > 46 µM. In the case of `CC(=O)CC(c1ccccc1)C1C(=O)Oc2ccccc2C1=O` (configuration not stated) [WARFARIN POTASSIUM], the “IC50 of cell viability” value was > 46 µM.

Turning to `C[C@H](N[C@@H](C)COc1ccccc1)[C@H](O)c1ccc(O)cc1` [Isoxsuprine hydrochloride], the “IC50 of cell viability” value is > 46 µM. Regarding `C[S+](=O)([O-])c1ccc([C@@H](O)[C@@H](COC(=O)CN)NC(=O)C(Cl)Cl)cc1` [THIAMPHENICOL AMINOACETATE HYDROCHLORIDE], the “IC50 of cell viability” value was > 46 µM. Consider `[Na+].[Na+].CC1(C)S[C@H]2[C@H](NC(=O)[C@H](C([O-])=O)C3=CSC=C3)C(=O)[N@]2[C@H]1C([O-])=O` [Ticarcillin sodium], for which the “IC50 of cell viability” value is > 46 µM. Consider `Cc1ccc(-c2nc3ccc(C)cn3c2CC(=O)N(C)C)cc1` [ZOLPIDEM], for which the “IC50 of cell viability” value was > 46 µM. On to `O=[S+]1([O-])c2cccc3cccc(c23)N1CCCN1CCN(c2ccc(F)cc2)CC1` [FANANSERINUM], for which the “IC50 of cell viability” value is > 46 µM. Turning to `OCCOCCOCCO` [TRIETHYLENE GLYCOL], the “IC50 of cell viability” value was > 46 µM. For `CCNCC.O=[S+]([O-])(O)c1cc(O)ccc1O` [Ethamsylate], the “IC50 of cell viability” value is > 46 µM. With `CN1C(CCl)Nc2cc(Cl)c([S+](N)(=O)[O-])cc2[S+]1(=O)[O-]` (configuration not stated) [METHYCLOTHIAZIDE], the “IC50 of cell viability” value was > 46 µM.

`CC(=O)[C@H]1CC[C@H]2[C@@H]3CC[C@H]4C[C@](C)(O)CC[C@]4(C)[C@H]3CC[C@]12C` [GANAXOLONUM]: the “IC50 of cell viability” value was > 46 µM. `CC(=O)Nc1ccc([S+](=O)([O-])Nc2ccc([N+](=O)[O-])cc2)cc1` [SULFANITRAN]: the “IC50 of cell viability” value was > 46 µM. For `CCOC(=O)CC(SP(=S)(OC)OC)C(=O)OCC` (configuration not stated) [Malathion] the value was > 46 µM; for `Cc1c[nH]c2ccccc12` [SKATOLUM], > 46 µM; for `NCCS` [Cysteamine], > 46 µM. Turning to `CCC(=O)[O-]` [Propionic acid], the “IC50 of cell viability” value was > 46 µM.

`CN1CCC(CC1)=C2C3=C(C=CC=C3)\C=C/C4=C2C=CC=C4` [CYPROHEPTADINE]: the “IC50 of cell viability” value was > 46 µM. For `Nc1c2c(nc3ccccc13)CCCC2` [TACRINE], the “IC50 of cell viability” value is > 46 µM. Take `NC(=O)OCC(COC(N)=O)c1ccccc1` [FELBAMATE]: the “IC50 of cell viability” value is > 46 µM.

For `NC(=O)C[S+]([O-])C(c1ccccc1)c1ccccc1` (configuration not stated) [MODAFINIL], the “IC50 of cell viability” value is > 46 µM. Regarding `Clc1ccc(CO/N=C(\Cn2ccnc2)c2ccc(Cl)cc2Cl)c(Cl)c1.O=[N+]([O-])O` [OXICONAZOLE NITRATE], the “IC50 of cell viability” value was > 46 µM. As for `Cc1ncc([N+](=O)[O-])n1CC(C)O` (configuration not stated) [SECNIDAZOLE], the “IC50 of cell viability” value is > 46 µM.

On to `Cc1c(C(=O)NCCO)[n+](=O)c2ccccc2n1[O-]`, for which the “IC50 of cell viability” value is > 46 µM. For `NC[C@H](O)c1ccc(O)c(O)c1` [Norepinephrine bitartrate] the value was > 46 µM. Regarding `CCCCCCCCOc1ccccc1C(=O)Nc1ccc(C(=O)OCC[N+](C)(CC)CC)cc1` [OCTYLONIUM BROMIDE], the “IC50 of cell viability” value is > 46 µM. For the molecule `c1ccc2[nH]ccc2c1` [INDOLUM], the “IC50 of cell viability” value is > 46 µM. `CCCCC(CC)COC(=O)CC(C(=O)OCC(CC)CCCC)S(=O)(=O)[O-]` (configuration not stated) [Colace]: the “IC50 of cell viability” value is > 46 µM.

Consider `CC(=O)O[C@@H]1C(=O)O[C@H]2[C@@H]1OC(=O)[C@@H]2OC(C)=O` [ACEGLATONE], for which the “IC50 of cell viability” value is > 46 µM. With `Cc1cn([C@H]2C[C@H](O)[C@@H](CO)O2)c(=O)[nH]c1=O` [TELBIVUDINUM], the “IC50 of cell viability” value is > 46 µM.
